# Measurements from US20110038856A1, “METHODS OF TREATING NEOPLASTIC, AUTOIMMUNE AND INFLAMMATORY DISEASES” (Seattle Genetics, Inc., priority 2006, published 2011).
# Tests used:
# [1] = biological target: CD33 (Homo sapiens, UniProt P20138); assay: Recruitment of SHP phosphatases / Syk to CD33 in HL-60 cells (immunoprecipitation, Western blot); format: cell-based; parameters: endogenous in cells; host or cells: HL-60 (ATCC); primary human CD14+ monocytes (Cambrex); macrophages derived from human PBMCs
# Experimental: To determine whether the humanized M195 antibody also recruits SHP phosphatases, HL-60 cells were treated with soluble or cross-linked anti-CD33 antibodies. Cell extracts were prepared and CD33 was immunoprecipitated with an anti-CD33 antibody (MY9 clone). Western blotting was performed with an anti-SHP-1 antibody (sc-287; Santa Cruz Biotechnology, Inc., Santa Cruz, Calif.).
# [2] = test system: primary human macrophages; assay: Macrophage migration in response to chemoattractants (CytoSelect Cell Migration Assay); format: cell-based
# Experimental: (§1) The migration of macrophages in response to challenge with plating media containing 10% human serum, 20% conditioned tumor cell media, or 50 ng/ml TGF-β, VEGF, TNF-α, or IFN-γ was evaluated using the CytoSelect Cell Migration Assay (Cell Biolabs, San Diego, Calif.). […] The study was stopped 18 hours later and migration was evaluated after dissociation of the cells from the membrane followed by detection with Cyquant GR dye.
# as §1, with “serum or” for “serum,”, “media” for “media, or 50 ng/ml TGF-β, VEGF, TNF-α, or IFN-γ”, “studies were” for “study was”, “h” for “hours”
# Sequence of CD33 (P20138 18-364): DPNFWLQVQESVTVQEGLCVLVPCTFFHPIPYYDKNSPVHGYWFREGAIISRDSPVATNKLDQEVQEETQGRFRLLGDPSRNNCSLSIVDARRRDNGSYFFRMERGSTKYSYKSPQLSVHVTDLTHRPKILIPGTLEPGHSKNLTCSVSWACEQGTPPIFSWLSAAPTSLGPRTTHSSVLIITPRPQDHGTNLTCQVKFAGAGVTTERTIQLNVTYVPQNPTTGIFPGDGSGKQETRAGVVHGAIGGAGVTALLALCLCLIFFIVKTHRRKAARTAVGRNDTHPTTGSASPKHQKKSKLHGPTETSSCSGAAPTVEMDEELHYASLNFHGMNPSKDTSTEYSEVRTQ
substance,measurement,setting,value
"SGN-33: anti-CD33 antibody, a humanized version of mouse monoclonal antibody M195",recruitment of SHP-2,[1]; data not shown,did not recruit
same,recruitment of Syk,[1]; data not shown,did not recruit
same,recruitment of SHP-1 to CD33,"[1]; soluble or cross-linked antibody, FIG. 3",recruited SHP-1 to CD33
same,macrophage migration,"[2]; 10% human serum or 20% conditioned media from RPMI 8226 cells, p<0.05, FIG. 21",significantly reduced
same,blocking of macrophage migration,"[2]; SGN-33 added to neuraminidase-treated macrophages, versus neuraminidase alone, FIG. 14C",greater blocking effect
same,movement of the macrophages toward chemoattractants,"[2]; cells pre-treated, 10% serum or conditioned medium, FIG. 14B",significantly reduced
same,migration of macrophages,"[2]; in response to conditioned tumor cell media, TGF-β, VEGF, TNF-α, and IFN-γ",significantly opposed the migration
